The subject of the assay is PC-9 ERO1α KO clones (CRISPR). Description: MTT viability assay, PC-9 ERO1α knockout clones. In kind it is cell-based. The conditions noted are these: 72 hours. As to the method:
We utilized an MTT assay to determine the potency of the compounds for inhibiting cell growth. […] We next asked whether T151742 induced inhibition of cell growth was dependent on ERO1α expression. As shown in FIG. 6C two ERO1α deleted clones in the PC-9 cell line were isolated. Using an MTT assay to determine overall cellar viability, a non-targeted control (scramble), and both ERO1α knockout clones was subjected to treatment with T151742 for 72 hours (See FIG. 6D). […] Though only slight differences were observed between T151742 and EN-460 we tested the effects of these compounds in a clonogenic assay which is a better test for inhibition of self-renewal.
Cell Lines: PC-9 cell line used was obtained from Sigma Aldrich and grown in RPMI 1640 medium with 10% fetal bovine serum and 1% penicillin/streptomycin. HCC4006, U266, MM1.s, and Beas-2B cell lines were obtained from ATCC and cultured in either RPMI 1640 or DMEM with 10% fetal bovine serum and 1% penicillin/streptomycin. All cell lines were also checked for mycoplasma every six months and subjected to short tandem repeat (STR) analysis for cell line validation. CRISPR Cas9: CRISPR Guide RNA 2 targeting ERO1α and CRISPR Guide RNA 4 were purchased from Genscript in the pLentiCRISPR V2 plasmid containing puromycin/ampicillin selection marker. Lentivirus was made from HEK 293T cells by co-transfection with GuideRNA of interest, pVSVG, and pPAX2 plasmids. Lentivirus was collected after 48 hours and concentrated using 40% PEG8000. […] Plate was then read on the BioTek Cytation 5 at 530/590 nm. […] Plate was then read at 570 nm. Treated wells were all compared to DMSO control wells to calculate percent growth inhibition and the IC50 was calculated using GraphPad (log(inhibitor) vs growth inhibition). […] Images were then quantified using ImageJ. […] Cells were aliquoted at 1 million cells per PCR tube in PBS and heated in Bio-Rad T100 thermal cycler at indicated temperatures (RT, 46° C., 48° C., 50° C., 52° C., 54° C., 56°, 58° C., and 60° C.) for 3 minutes and aggregation temperature was determined by western blot analysis. […]

The text below walks through data of patent US20250064773A1, “TARGETING ERO1 ALPHA WITH AURONE DERIVATIVES” (West Virginia University Board of Governors on behalf of …, priority 2021, published 2025).

Usually IC50 stands for the concentration that inhibits the measured activity by half.

Read-outs that look alike come from different tables or passages of the source.

As for `CN(C)c1ccc(/C=C2\Oc3cc(O)ccc3C2=O)cc1` [Compound T151742], the IC50 came to 32.2 ± 1.09 µM (read-out: IC50, MTT assay, PC-9 ERO1α KO Clone 1) and 41.5 ± 1.08 µM (read-out: IC50, MTT assay, PC-9 ERO1α KO Clone 2). For the same compound, for the setting “MTT”, the “fold more resistant, ERO1α deleted cells compared to the control cell line” value is 2-3 fold.
